Experimental data reported in ChEMBL document CHEMBL5291721, “A preclinical secondary pharmacology resource illuminates target-adverse drug reaction associations of marketed drugs” (Nat Commun, 2023).

Tests used:
Vasopressin V2 receptor = Vasopressin V2 receptor (Homo sapiens, UniProt P30518)
[1] = biological target: T1, 5-hydroxytryptamine receptor 1A (Homo sapiens, UniProt P08908)
T1 sequence (P08908 whole entry): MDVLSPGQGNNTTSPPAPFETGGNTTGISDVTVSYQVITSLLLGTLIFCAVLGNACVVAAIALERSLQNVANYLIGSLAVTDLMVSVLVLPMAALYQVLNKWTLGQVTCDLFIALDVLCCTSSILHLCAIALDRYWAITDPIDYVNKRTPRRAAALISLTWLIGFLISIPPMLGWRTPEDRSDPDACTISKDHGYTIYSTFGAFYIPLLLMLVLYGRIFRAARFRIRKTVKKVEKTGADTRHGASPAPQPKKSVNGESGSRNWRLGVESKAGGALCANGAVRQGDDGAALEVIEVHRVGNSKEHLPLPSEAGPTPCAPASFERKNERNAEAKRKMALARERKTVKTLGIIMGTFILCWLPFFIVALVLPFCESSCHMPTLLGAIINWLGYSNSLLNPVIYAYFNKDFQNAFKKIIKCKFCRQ

[2] = biological target: T2, Amine oxidase [flavin-containing] A (Homo sapiens, UniProt P21397); type: functional
T2 sequence (P21397 whole entry): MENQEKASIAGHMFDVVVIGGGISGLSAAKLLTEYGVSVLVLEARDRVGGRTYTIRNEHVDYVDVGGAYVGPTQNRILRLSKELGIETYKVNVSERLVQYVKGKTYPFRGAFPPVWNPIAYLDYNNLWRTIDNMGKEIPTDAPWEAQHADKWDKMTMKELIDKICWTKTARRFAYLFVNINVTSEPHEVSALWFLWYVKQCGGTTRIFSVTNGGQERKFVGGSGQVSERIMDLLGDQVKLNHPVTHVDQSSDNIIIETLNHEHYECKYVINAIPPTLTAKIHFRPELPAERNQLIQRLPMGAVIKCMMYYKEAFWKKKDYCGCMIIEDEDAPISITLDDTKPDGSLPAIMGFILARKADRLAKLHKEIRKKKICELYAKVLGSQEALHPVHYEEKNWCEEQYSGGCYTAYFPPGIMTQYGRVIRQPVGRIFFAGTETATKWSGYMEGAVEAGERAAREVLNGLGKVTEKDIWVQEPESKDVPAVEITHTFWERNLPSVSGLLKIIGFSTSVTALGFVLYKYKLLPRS

[3] = biological target: T3, Muscarinic acetylcholine receptor M2 (Homo sapiens, UniProt P08172); type: functional, cell-based
T3 sequence (P08172 whole entry): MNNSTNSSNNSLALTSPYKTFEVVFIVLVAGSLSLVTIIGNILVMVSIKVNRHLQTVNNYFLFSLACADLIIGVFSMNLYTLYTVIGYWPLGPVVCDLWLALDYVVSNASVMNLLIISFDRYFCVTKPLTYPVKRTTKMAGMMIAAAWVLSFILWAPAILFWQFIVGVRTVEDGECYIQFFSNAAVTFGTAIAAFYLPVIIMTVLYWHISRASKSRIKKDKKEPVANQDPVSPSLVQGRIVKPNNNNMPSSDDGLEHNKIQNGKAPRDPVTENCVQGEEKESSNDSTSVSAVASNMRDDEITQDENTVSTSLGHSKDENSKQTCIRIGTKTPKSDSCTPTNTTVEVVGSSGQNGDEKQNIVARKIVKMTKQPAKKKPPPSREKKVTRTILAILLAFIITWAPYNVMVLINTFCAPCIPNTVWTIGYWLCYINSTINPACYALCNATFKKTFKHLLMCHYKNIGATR

[4] = biological target: T3, Muscarinic acetylcholine receptor M2; type: functional, cell-based; remark: listed apart in the source
[5] = biological target: T1, 5-hydroxytryptamine receptor 1A; type: functional, cell-based
[6] = biological target: Kappa-type opioid receptor (Homo sapiens, UniProt P41145)
[7] = biological target: T4, Alpha-1A adrenergic receptor (Homo sapiens, UniProt P35348); type: functional, cell-based
T4 sequence (P35348 whole entry): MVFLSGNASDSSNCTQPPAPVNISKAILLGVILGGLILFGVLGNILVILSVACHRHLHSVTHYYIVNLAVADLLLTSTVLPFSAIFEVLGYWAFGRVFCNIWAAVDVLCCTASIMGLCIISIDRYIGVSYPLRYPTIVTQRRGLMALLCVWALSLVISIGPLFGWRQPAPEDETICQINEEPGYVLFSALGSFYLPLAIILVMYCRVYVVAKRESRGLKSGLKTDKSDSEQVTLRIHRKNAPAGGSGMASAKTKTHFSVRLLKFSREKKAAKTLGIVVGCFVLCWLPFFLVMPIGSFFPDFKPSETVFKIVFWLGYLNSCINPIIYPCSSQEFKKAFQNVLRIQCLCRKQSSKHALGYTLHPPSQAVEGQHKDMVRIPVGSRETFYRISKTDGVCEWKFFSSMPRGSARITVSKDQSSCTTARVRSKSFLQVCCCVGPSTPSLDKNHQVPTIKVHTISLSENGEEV

[8] = biological target: T5, Muscarinic acetylcholine receptor M1 (Homo sapiens, UniProt P11229); type: functional
T5 sequence (P11229 whole entry): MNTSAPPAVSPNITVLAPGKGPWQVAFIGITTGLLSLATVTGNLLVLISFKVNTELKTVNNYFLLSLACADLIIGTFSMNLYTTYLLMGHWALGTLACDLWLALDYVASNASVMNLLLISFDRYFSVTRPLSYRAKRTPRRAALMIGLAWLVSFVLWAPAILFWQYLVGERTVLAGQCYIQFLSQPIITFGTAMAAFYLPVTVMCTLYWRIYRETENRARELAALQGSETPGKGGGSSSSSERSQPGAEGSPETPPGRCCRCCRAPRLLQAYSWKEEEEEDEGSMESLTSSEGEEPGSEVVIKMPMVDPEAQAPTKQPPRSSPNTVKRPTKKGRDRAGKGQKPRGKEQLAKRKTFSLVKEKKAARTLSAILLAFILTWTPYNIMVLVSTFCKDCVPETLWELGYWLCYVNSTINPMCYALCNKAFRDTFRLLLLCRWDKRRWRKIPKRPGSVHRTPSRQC

[9] = biological target: Sodium-dependent serotonin transporter (Homo sapiens, UniProt P31645)
Further: assay procedure not described here.

Chain of Vasopressin V2 receptor (P30518 whole entry): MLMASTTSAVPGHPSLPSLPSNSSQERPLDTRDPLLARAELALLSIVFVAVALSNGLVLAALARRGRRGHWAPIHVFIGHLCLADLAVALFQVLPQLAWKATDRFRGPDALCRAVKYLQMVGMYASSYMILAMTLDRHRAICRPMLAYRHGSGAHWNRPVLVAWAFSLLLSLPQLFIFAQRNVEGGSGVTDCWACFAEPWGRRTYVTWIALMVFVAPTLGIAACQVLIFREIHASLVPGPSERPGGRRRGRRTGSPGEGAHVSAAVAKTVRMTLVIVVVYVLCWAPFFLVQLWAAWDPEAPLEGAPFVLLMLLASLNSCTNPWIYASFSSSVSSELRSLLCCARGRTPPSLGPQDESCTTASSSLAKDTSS
Chain of Kappa-type opioid receptor (P41145 whole entry): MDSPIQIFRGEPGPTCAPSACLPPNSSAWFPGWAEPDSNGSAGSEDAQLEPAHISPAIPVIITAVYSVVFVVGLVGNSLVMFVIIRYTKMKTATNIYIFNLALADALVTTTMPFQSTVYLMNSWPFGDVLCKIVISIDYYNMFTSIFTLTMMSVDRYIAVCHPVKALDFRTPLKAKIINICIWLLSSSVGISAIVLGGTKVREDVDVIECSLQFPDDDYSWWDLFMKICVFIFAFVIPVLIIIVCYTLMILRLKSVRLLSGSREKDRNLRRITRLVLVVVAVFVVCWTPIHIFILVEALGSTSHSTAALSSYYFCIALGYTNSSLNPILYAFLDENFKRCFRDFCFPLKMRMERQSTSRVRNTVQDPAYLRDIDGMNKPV
Chain of Sodium-dependent serotonin transporter (P31645 whole entry): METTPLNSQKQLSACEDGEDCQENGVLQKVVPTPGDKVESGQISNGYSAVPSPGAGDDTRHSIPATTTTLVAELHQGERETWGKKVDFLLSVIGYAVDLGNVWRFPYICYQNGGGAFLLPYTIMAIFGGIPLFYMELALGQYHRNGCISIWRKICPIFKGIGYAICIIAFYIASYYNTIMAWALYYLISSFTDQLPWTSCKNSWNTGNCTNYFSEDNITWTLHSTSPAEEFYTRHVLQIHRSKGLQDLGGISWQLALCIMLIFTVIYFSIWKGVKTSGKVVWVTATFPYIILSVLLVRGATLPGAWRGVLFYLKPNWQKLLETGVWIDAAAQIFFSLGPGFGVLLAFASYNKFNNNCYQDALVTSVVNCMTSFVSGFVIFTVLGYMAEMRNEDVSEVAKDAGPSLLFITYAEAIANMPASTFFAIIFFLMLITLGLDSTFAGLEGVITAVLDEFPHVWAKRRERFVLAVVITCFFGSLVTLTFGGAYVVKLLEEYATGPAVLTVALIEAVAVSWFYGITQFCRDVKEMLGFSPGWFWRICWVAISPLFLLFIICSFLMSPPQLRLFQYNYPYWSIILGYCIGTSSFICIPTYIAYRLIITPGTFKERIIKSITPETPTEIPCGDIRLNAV

SMILES	AC50 (Vasopressin V2 receptor) [µM]	AC50 [1] [µM]	AC50 [2] [µM]	AC50 [3] [µM]	AC50 [4] [µM]	AC50 [5] [µM]	AC50 [6] [µM]	AC50 [7] [µM]	AC50 [8] [µM]	AC50 [9] [µM]
O=c1[nH]cc(F)c(=O)[nH]1 [FLUOROURACIL]	> 30	> 30	> 30	–	–	–	–	–	–	–
CCN(CCO)CCCC(C)Nc1ccnc2cc(Cl)ccc12 (configuration not stated) [HYDROXYCHLOROQUINE]	> 10	–	–	> 10	> 10	> 10	> 10	–	–	–
CN1CC2c3ccccc3Oc3ccc(Cl)cc3C2C1 (configuration not stated) [ASENAPINE]	–	–	–	19	> 30	0.0097	–	> 30	> 30	–
CNC1(c2ccccc2Cl)CCCCC1=O (configuration not stated) [KETAMINE]	–	> 30	> 30	–	–	–	–	–	–	–
CS(=O)(=O)Nc1ccc([N+](=O)[O-])cc1Oc1ccccc1 [NIMESULIDE]	26	> 30	> 30	> 30	> 30	–	> 30	> 30	–	–
CN(C)CCC=C1c2ccccc2CCc2ccccc21 [AMITRIPTYLINE]	> 30	0.337	> 30	–	–	–	–	> 30	–	–
NCCCNCCSP(=O)(O)O [AMIFOSTINE]	> 30	–	–	> 30	> 30	> 30	> 30	> 30	–	–
O=P1(N(CCCl)CCCl)NCCCO1 (configuration not stated) [CYCLOPHOSPHAMIDE ANHYDROUS]	–	> 30	> 30	–	–	–	–	–	–	–
O=NN(CCCl)C(=O)NC1CCCCC1 [LOMUSTINE]	–	> 30	> 30	–	–	–	–	–	–	–
CN(C)CCc1c[nH]c2ccc(CS(=O)(=O)N3CCCC3)cc12 [ALMOTRIPTAN]	> 30	–	–	> 30	> 30	–	> 30	> 30	> 30	> 30
NCCCCCC(=O)O [AMINOCAPROIC ACID]	> 10	–	–	> 10	> 10	> 10	> 10	–	–	–
CC[N+](CC)(CCNC(=O)C(=O)NCC[N+](CC)(CC)Cc1ccccc1Cl)Cc1ccccc1Cl [AMBENONIUM]	> 30	–	–	> 30	2.2	> 30	0.7	–	1.6	6.1
CC(=O)NC[C@H]1CN(c2ccc(N3CCOCC3)c(F)c2)C(=O)O1 [LINEZOLID]	> 30	–	–	–	–	> 30	> 30	> 30	> 30	–
CC(=O)Oc1ccccc1C(=O)O [ASPIRIN]	> 30	> 30	> 30	> 30	> 30	> 10	> 10	> 30	–	–
C[C@H](CS)C(=O)N1CCC[C@H]1C(=O)O [CAPTOPRIL]	> 30	–	–	> 10	> 10	–	> 10	> 30	–	–
CCC1(c2ccccc2)C(=O)NCNC1=O [PRIMIDONE]	> 10	–	–	> 10	> 10	> 10	> 10	–	–	–
CCOC(=O)Nc1ccc(NCc2ccc(F)cc2)nc1N [FLUPIRTINE]	> 30	–	–	> 30	> 30	22	18	–	> 30	> 30
Cc1c(C)c2c(c(C)c1O)CCC(C)(COc1ccc(CC3SC(=O)NC3=O)cc1)O2 (configuration not stated) [TROGLITAZONE]	> 30	25.7	> 30	> 30	–	6.9	18	> 30	–	–
CCOC(=O)[C@H](CCc1ccccc1)N[C@@H](C)C(=O)N1Cc2ccccc2C[C@H]1C(=O)O	> 30	> 30	> 30	> 10	> 10	> 10	> 10	> 30	–	–
O=C(O)COC(=O)Cc1ccccc1Nc1c(Cl)cccc1Cl [ACECLOFENAC]	> 30	–	–	> 10	> 10	> 10	> 10	> 30	–	–
CC(C)C[C@H](NC(=O)[C@H](Cc1ccccc1)NC(=O)c1cnccn1)B(O)O [BORTEZOMIB]	> 30	–	–	> 30	> 30	> 30	> 30	–	> 30	> 30
C[C@H](CCC(=O)O)[C@H]1CC[C@H]2[C@@H]3[C@H](O)C[C@@H]4C[C@H](O)CC[C@]4(C)[C@H]3CC[C@]12C [CHENODIOL]	–	–	–	> 30	27	> 30	–	> 30	> 30	–
Nc1nnc(-c2cccc(Cl)c2Cl)c(N)n1 [LAMOTRIGINE]	> 30	–	–	> 10	> 10	> 10	> 10	> 30	–	–
CN(C)CCCC1(c2ccc(F)cc2)OCc2cc(C#N)ccc21 (configuration not stated) [CITALOPRAM]	> 30	–	> 30	–	–	> 10	> 10	–	–	–
NCC1(CC(=O)O)CCCCC1 [GABAPENTIN]	> 30	> 30	> 30	> 30	> 30	> 30	> 10	> 30	–	–
CNC1(C)C2CCC(C2)C1(C)C (configuration not stated) [MECAMYLAMINE]	> 10	–	–	> 10	> 10	> 10	> 10	–	> 10	> 10
O=C(c1ccccc1)c1ccc2n1CCC2C(=O)O (configuration not stated) [KETOROLAC]	> 10	–	–	> 30	> 30	> 10	> 30	> 30	–	–
CC(C)NCC(O)COc1ccc(CC(N)=O)cc1 (configuration not stated) [ATENOLOL]	> 30	–	–	–	–	–	> 30	> 30	–	–
COC(=O)CCc1ccc(OCC(O)CNC(C)C)cc1 (configuration not stated) [ESMOLOL]	> 30	–	–	> 30	> 30	–	> 30	> 30	–	–
